# Data: patent US20220152044A1, “TREATMENT OF INFLAMMATORY DISEASES OF THE CENTRAL NERVOUS SYSTEM” (PALMAYA PTY LTD, priority 2019, published 2022)
# How the values were obtained:
# [1] = tested on: alcohol use; assay: Return to alcohol use on naltrexone with or without flumazenil; type: in vivo, human; settings: naltrexone 2 ng/ml; flumazenil 40 to 160 μg/hour where combined
# Protocol: We have observed that in this group of patients complain of increased irritability, increased anxiety, increased sleep disturbance, and/or increased aggressive behaviour. However, when administered together with flumazenil at a concentration of 40 to 160 μg/hour, these systems are controlled.
# For patients with a history of relapse on naltrexone implants, the use of sustained release flumazenil with infusions initially and with a series of sustained release flumazenil implants delivering 40-160 μg/hour to sustain a concentration of 0.5 ng/ml or more appear to be useful in controlling the return to alcohol use. For example, we have shown that in women with a history of irritability and return to drinking in the premenstrual days, this treatment with sustained release flumazenil in combination with naltrexone, reduces craving and relapse patterns.
# [2] = tested on: cocaine use; assay: Cocaine craving in patients with naltrexone implants; type: in vivo, human; settings: approximately 15 patients, reported by most
# Text: Approximately 15 […] patients have presented specifically for the control of their cocaine use using naltrexone implants. Approximately a third of these patients were from the United Kingdom, a third from Sydney, Australia and a third from Perth, Australia. This group of patients reported a reduction in craving with naltrexone implants, and most reported a reduction in cravings for 6-12 months after receiving the implant. Approximately half returned for repeat implants based on their observations that the naltrexone implant controlled their cravings.
# [3] = tested on: amphetamine use; assay: Amphetamine / methamphetamine craving and withdrawal; type: in vivo, human; settings: naltrexone implants, plasma concentration maintained at 2 ng/ml or higher
# Protocol: In those patients that return 2-3 weeks with extreme anxiety and a desire to return to amphetamine use, the commencement of flumazenil infusions followed by a flumazenil implant that sustains a plasma concentration of flumazenil at 0.5-2 ng/ml or more decreases the cravings, including a decrease in the desire for amphetamines and allows reduction f irritability and aggression.
# [4] = tested on: PTSD; assay: PTSD patients treated with flumazenil and/or naltrexone; type: in vivo, human; settings: severe case, had occurred for 6 years; naltrexone implant inserted
# Text: Post Trauma Stress Disorder (PTSD), causes dysregulation of anxiety control that may damage the GABAA system and present as hypervigilance, sleep disturbance, anxiety, gastrointestinal (GIT) or bladder symptoms. We have been using flumazenil for more than 8 years to treat patients presenting complex. The infusions and implants give relief to the anxiety, sleep disturbance and the GIT symptoms as well as urinary symptoms in many well established PTSD patients.
# Sleep remained normal following this. The profound recovery of sleep in patients with PTSD using flumazenil and naltrexone by continuous delivery has not previously been described.
# [5] = tested on: cannabis withdrawal; assay: Withdrawal from cannabis with high THC concentrations; type: in vivo, human; settings: naltrexone implants, plasma concentration 0.5 ng/ml to 10 ng/ml or more
# Text: Cannabis use has changed in recent years with a significant cohort describing high tetrahydrocannabinol (THC) concentrations in potent strains which are cultivated for their high THC content. In the patient group using these high concentrations of THC, we have noted that a group of patients give a clear cut history of extreme nausea, vomiting, anxiety changing to serious paranoid thoughts and delusions followed by psychosis over the first 3-5 days of ceasing drug use.
# In a severe patient population, ondansetron may be given every 6-8 hours to assist in reducing the nausea and associated anxiety symptoms.
# Our results indicated a clear reduction in anxiety, and paranoid symptoms, allowing patients who otherwise would be unable to cope with the symptoms, to cease cannabis use.
# [6] = tested on: craving for nicotine; assay: Nicotine craving and use in patients; type: in vivo, human; settings: flumazenil by infusion or nasally/sublingually 50 to 200 micrograms per dose
# [7] = tested on: HPA axis; assay: HPA axis in stressed animals; type: in vivo
# Text: For this reason the combination of sustained release naltrexone and sustained release flumazenil using injections, implants or infusions would be expected to limit neuro-inflammatory diseases and their symptoms.
smiles,measurement,setting,value
O=C1CC[C@@]2(O)[C@H]3Cc4ccc(O)c5c4[C@@]2(CCN3CC2CC2)[C@H]1O5 [naltrexone],return to alcohol use,[1],return to drinking alcohol
same,duration of reduction in cravings after receiving the implant,[2],6-12 months
same,craving for amphetamine use,[3],significant reduction in craving
same,waking at 2 am with shouting and anxiety,[4],stopped immediately
same,cannabis craving and impulse control,[5],reduces the craving and improves impulse control
same,craving for and use of nicotine,[6],reduced craving for nicotine
same,return of the HPA axis to normal,[7],help return the HPA axis
